Experimental data reported in patent US12324800B2 (priority 2019, dated 2025).

Columns and labels:
[1] = parameters: key to Phase preferences, Physiological conditions: L, Lamellar; HII, hexagonal; M, micellar; conditions: liquid crystalline unsaturated lipids, cited from earlier work; for Phase preferences, Other conditions: conditions given in the cell
[2] = Rancimat accelerated oxidation test; type: physicochemical
Description: To investigate this, accelerated oxidation tests of cannabis oil in the labile soybean oil with and without additional antioxidants were conducted. The Rancimat (Metrohm MG, Herisau, Switzerland) test was used for this purpose as follows. 2 g of oil were placed in a narrow glass flask, heated to 110° C. and air was bubbled through the oil at 20 ml/min. This caused accelerated oxidation. As the liquid oxidized, volatile secondary oxidation products were volatilized and bubbled into room temperature water. This caused them to dissolve in the water, which results in an increase in its electrical conductivity. The conductivity is measured continuously using a standard electrode.

[3] = THC degradation on heating of cannabis oil films (gas-liquid chromatography); conditions: dry films with 14 mg cannabis oil, 1.5 hours at 100° C.
Description: Five 1 ml chromatography glass vials were used for this purpose. […] Stock solutions of 0.5% sunflower lecithin (Sunlec25), 0.01% TBHQ and 0.5% lecithin+0.01% TBHQ were prepared.
The chloroform was evaporated under a stream of air until completely dry. […] After the heating period, samples were removed from the oven, allowed to cool to room temperature and then 1 ml of fresh chloroform was added to each vial and capped. Samples were then analyzed by gas-liquid chromatography as described previously. […] A 15 m×0.25 mm internal diameter fused silica column with a 0.20 μm DB5 film thickness was used (Agilent Inc., USA). The oven temperature was maintained at 80° C. for 5 minutes and then programmed to increase from 80 to 300° C. at 12° C./min. […] Split ratio was set at 10:1. Helium, the earlier gas, flowed at an average velocity of 25 cm/s. A flame ionization detector was set at 350° C. with 450 mL/min air and 50 mL/min helium flowing. The separated peaks were analyzed using Open LAB software (Agilent Technologies). The amount of cannabinoid was determined by comparing retention times of the peaks to an internal standard. Tor this analysis, the main THC peak was analyzed.

CC(C)CCC[C@@H](C)[C@H]1CC[C@H]2[C@@H]3CC=C4C[C@@H](O)CC[C@]4(C)[C@H]3CC[C@]12C [Cholesterol, cholesterol, reference compound]
Phase preferences, Other conditions [1]: Induces HII phase in mixed

CC(C)(C)c1cc(O)ccc1O [TBHQ, tert-butylhydroquinone]
increase of induction time ([2]; 0.01% TBHQ added to soybean oil alone): 7.1 h
induction time of oxidation ([2]; 0.01% TBHQ added to soybean oil containing 4.8 mg/g cannabis oil): 15.7 h
induction time of oxidation ([2]; 0.01% TBHQ added to soybean oil containing 0.5% sunflower lecithin and 4.8 mg/g cannabis oil): 28.8 h
increase of induction time of oxidation for every 100 ppm TBHQ added ([2]; soybean oil, 110° C.): 7.1 to 7.2 h

CCCCCc1cc(O)c2c(c1)OC(C)(C)[C@@H]1CCC(C)=C[C@@H]21 [THC, tetrahydrocannabinol]
degradation of THC on heating [3]: significant degradation

Cardiolipin
Phase preferences, Physiological conditions [1]: L
Phase preferences, Other conditions [1]: HII, divalent cations,

Cerebroside
Phase preferences, Physiological conditions [1]: L

Cerebroside sulfate
Phase preferences, Physiological conditions [1]: L

Digalactosyldiglyceride
Phase preferences, Physiological conditions [1]: L

Diglucosyldiglyceride
Phase preferences, Physiological conditions [1]: L

Ganglioside
Phase preferences, Physiological conditions [1]: M

Lysophosphatidylcholine
Phase preferences, Physiological conditions [1]: M

Monogalactosyldiglyceride
Phase preferences, Physiological conditions [1]: HII

Monoglucosyldiglyceride
Phase preferences, Physiological conditions [1]: HII

Phosphatidic acid
Phase preferences, Physiological conditions [1]: L
Phase preferences, Other conditions [1]: HII, divalent cations,

Phosphatidylcholine
Phase preferences, Physiological conditions [1]: L
Phase preferences, Other conditions [1]: HII low hydration and high

Phosphatidylethanolamine
Phase preferences, Physiological conditions [1]: HII
Phase preferences, Other conditions [1]: L, pH ≥ 8.5 low temp

Phosphatidylglycerol
Phase preferences, Physiological conditions [1]: L
Phase preferences, Other conditions [1]: HII, high temp, high salt conc.

Phosphatidylinositol
Phase preferences, Physiological conditions [1]: L

Phosphatidylserine
Phase preferences, Physiological conditions [1]: L
Phase preferences, Other conditions [1]: HII, pH ≤ 3.5

Sphingomyelin
Phase preferences, Physiological conditions [1]: L
